# The NIST ThermoML archive (doi:10.1016/j.jct.2014.04.011)
# ± gives the expanded uncertainty stated by the source.
# Columns and labels:
# [1] = Crystal; DTA
# [2] = Molar enthalpy of transition or fusion; settings: Crystal; DSC
smiles,measurement,setting,value
"CC(C)(C)C(=O)C(Oc1ccc(Cl)cc1)n1ccnc1 (configuration not stated) [1-(4-Chlorophenoxy)-1-(imidazol-1-yl)-3,3-dimethylbutanone]",Triple point temperature,[1],372 ± 0.7 K
same,Molar enthalpy of transition or fusion,[2],6.93 ± 0.239 kcal/mol
